# Columns and labels:
# [1] = absorbed by the gastrointestinal tract, significant first-pass metabolism in the liver; cited from earlier work
# osteoarthritis symptoms = conditions: cited from earlier work
# weakness of hind legs = test: Case report: 12 year old Weimaraner with weakness of hind legs (Example 3); format: in vivo, dog (Weimaraner); conditions: prednisone 20 mg per day
# Protocol: A 12 year old Weimaraner developed weakness of his hind legs which limited his ability to jump and lift his leg to urinate. […] He was then started on the new composition, of the invention, comprising zinc acetate 20 mg and glucosamine sulfate 500 mg coated with polyvinylpirrolidone 7 mg taken twice a day. […] He was then maintained on glucosamine sulfate 500 mg and zinc acetate 10 mg, twice a day for 11 months until his death.
# [2] = most common adverse effect of zinc therapy; cited from earlier work
structure (smiles),measurement,setting,value
N[C@H]1C(O)O[C@H](CO)[C@@H](O)[C@@H]1O (some centres unmarked) [Glucosamine],bioavailibility,[1],26%
N[C@H]1C(O)O[C@H](CO)[C@@H](O)[C@@H]1O.O=S(=O)(O)O (some centres unmarked) [glucosamine sulfate],persistence of clinical improvement after discontinuation,osteoarthritis symptoms; after discontinuation,up to four weeks
same,onset of clinical improvement of symptoms,osteoarthritis symptoms; after oral administration,as early as one week
C[C@]12C=CC(=O)C=C1CC[C@@H]1[C@@H]2C(=O)C[C@@]2(C)[C@H]1CC[C@]2(O)C(=O)CO [prednisone],response of hind leg weakness,weakness of hind legs,limited success
[Zn] [zinc],"gastrointestinal irritation, share of patients",[2],approximately 10 % of patients

# Source: patent US6656925B2, “Composition and method of treating arthritis” (Advanced Medical Instruments, priority 1998, dated 2003)
